System: MV-4-11 cells
Test: Gene expression microarray analysis (Affymetrix PrimeView) and GSEA
Type: cell-based, human
Set-up: RFU PODN (11730768_x_at) / Fold change /veh PODN (11730768_x_at) / RFU LINC00158 (11744669_a_at) / Fold change /veh LINC00158 (11744669_a_at) / RFU DUSP10 (11751237_a_at) / Fold change /veh DUSP10 (11751237_a_at) / RFU ID3 (11757404_x_at) / Fold change /veh ID3 (11757404_x_at) / RFU PLEKHG5 (11737974_s_at) / Fold change /veh PLEKHG5 (11737974_s_at) / RFU LRRC4B (11730491_at) / Fold change /veh LRRC4B (11730491_at) / RFU GIMAP4 (11747438_a_at) / Fold change /veh GIMAP4 (11747438_a_at) / RFU KRT8 (11758183_x_at) / Fold change /veh KRT8 (11758183_x_at) / RFU CNN1 (11734310_a_at) / Fold change /veh CNN1 (11734310_a_at) / RFU VPS37D (11726825_at) / Fold change /veh VPS37D (11726825_at) / RFU C10orf10 (11716522_x_at) / Fold change /veh C10orf10 (11716522_x_at) / RFU KIR2DL2 /// KIR2DL4 /// KIR2DL5A /// KIR2DL5B /// KIR2DS1 /// KIR2DS2 /// KIR2DS3 /// KIR2DS4 /// KIR3DL3 /// KIR3DL3 /// KIR3DS1 (11738374_at) / Fold change /veh KIR2DL2 /// KIR2DL4 /// KIR2DL5A /// KIR2DL5B /// KIR2DS1 /// KIR2DS2 /// KIR2DS3 /// KIR2DS4 /// KIR3DL3 /// KIR3DL3 /// KIR3DS1 (11738374_at) / RFU C1QL1 (11718748_at) / Fold change /veh C1QL1 (11718748_at) / RFU TMPRSS4 (11747572_a_at) / Fold change /veh TMPRSS4 (11747572_a_at) / RFU HAMP (11756126_x_at) / Fold change /veh HAMP (11756126_x_at) / RFU RNFT2 (11725882_a_at) / Fold change /veh RNFT2 (11725882_a_at) / RFU NR4A2 (11747474_a_at) / Fold change /veh NR4A2 (11747474_a_at) / RFU ABCC12 (11746883_a_at) / Fold change /veh ABCC12 (11746883_a_at) / RFU TMEM136 (11760407_x_at) / Fold change /veh TMEM136 (11760407_x_at) / RFU CLDN22 /// WWC2 (11732394_at) / Fold change /veh CLDN22 /// WWC2 (11732394_at) / RFU HLA-DPB1 (11760878_x_at) / Fold change /veh HLA-DPB1 (11760878_x_at) / RFU SPINT1 (11716480_a_at) / Fold change /veh SPINT1 (11716480_a_at) / RFU GAP43 (11754022_s_at) / Fold change /veh GAP43 (11754022_s_at) / RFU A4GNT (11735810_at) / Fold change /veh A4GNT (11735810_at) / RFU PRB3 (11715151_x_at) / Fold change /veh PRB3 (11715151_x_at) / RFU TUBB4B (11761932_at) / Fold change /veh TUBB4B (11761932_at) / RFU CAPN14 (11732068_a_at) / Fold change /veh CAPN14 (11732068_a_at) / RFU TMCC2 (11721928_a_at) / Fold change /veh TMCC2 (11721928_a_at) / RFU IRGQ (11745062_a_at) / Fold change /veh IRGQ (11745062_a_at) / RFU FAM174B (11720279_a_at) / Fold change /veh FAM174B (11720279_a_at) / RFU TMPRSS4 (11748680_a_at) / Fold change /veh TMPRSS4 (11748680_a_at) / RFU FAM212B (11763350_a_at) / Fold change /veh FAM212B (11763350_a_at) / RFU PLEKHG5 (11743358_a_at) / Fold change /veh PLEKHG5 (11743358_a_at) / RFU ZSCAN30 (11745921_a_at) / Fold change /veh ZSCAN30 (11745921_a_at) / RFU CMKLR1 (11741424_a_at) / Fold change /veh CMKLR1 (11741424_a_at) / RFU LOC101060620 /// MAPK8IP1 (11723275_at) / Fold change /veh LOC101060620 /// MAPK8IP1 (11723275_at) / RFU SPTSSB (11747773_x_at) / Fold change /veh SPTSSB (11747773_x_at) / RFU PRSS12 (11739890_at) / Fold change /veh PRSS12 (11739890_at) / RFU BIN1 (11741810_x_at) / Fold change /veh BIN1 (11741810_x_at) / RFU WNT11 (11732464_a_at) / Fold change /veh WNT11 (11732464_a_at) / RFU C10orf10 (11716521_a_at) / Fold change /veh C10orf10 (11716521_a_at) / RFU C5orf56 (11738089_at) / Fold change /veh C5orf56 (11738089_at) / RFU CYB561 (11721691_x_at) / Fold change /veh CYB561 (11721691_x_at) / RFU ANKRD19P (11752326_a_at) / Fold change /veh ANKRD19P (11752326_a_at) / RFU OR2T12 /// OR2T33 /// OR2T8 (11738714_s_at) / Fold change /veh OR2T12 /// OR2T33 /// OR2T8 (11738714_s_at) / RFU VCAN (11748164_a_at) / Fold change /veh VCAN (11748164_a_at) / RFU JSRP1 (11732532_at) / Fold change /veh JSRP1 (11732532_at) / RFU KRTAP10-11 (11738290_x_at) / Fold change /veh KRTAP10-11 (11738290_x_at) / RFU MYO3A (11730013_a_at) / Fold change /veh MYO3A (11730013_a_at) / RFU EBF3 (11725865_a_at) / Fold change /veh EBF3 (11725865_a_at) / RFU CAMK2N1 (11719241_x_at) / Fold change /veh CAMK2N1 (11719241_x_at) / RFU C5orf56 (11738088_a_at) / Fold change /veh C5orf56 (11738088_a_at) / RFU OLFML3 (11715873_a_at) / Fold change /veh OLFML3 (11715873_a_at) / RFU LOC100653217 /// NTM (11731650_a_at) / Fold change /veh LOC100653217 /// NTM (11731650_a_at) / RFU MAPK11 (11762145_a_at) / Fold change /veh MAPK11 (11762145_a_at) / RFU FIZ1 (11724087_x_at) / Fold change /veh FIZ1 (11724087_x_at) / RFU OASL (11726364_x_at) / Fold change /veh OASL (11726364_x_at) / RFU SOX15 (11748057_x_at) / Fold change /veh SOX15 (11748057_x_at) / RFU CD79A (11719716_a_at) / Fold change /veh CD79A (11719716_a_at) / RFU HIST1H1D (11736915_at) / Fold change /veh HIST1H1D (11736915_at) / RFU CASKIN2 (11723855_a_at) / Fold change /veh CASKIN2 (11723855_a_at) / RFU LOC730098 (11760151_x_at) / Fold change /veh LOC730098 (11760151_x_at) / RFU OR4N2 (11742367_at) / Fold change /veh OR4N2 (11742367_at) / RFU PRRT2 (11749266_a_at) / Fold change /veh PRRT2 (11749266_a_at) / RFU SNX32 (11753110_a_at) / Fold change /veh SNX32 (11753110_a_at) / RFU CDHR5 (11726645_a_at) / Fold change /veh CDHR5 (11726645_a_at) / RFU RCAN1 (11760418_a_at) / Fold change /veh RCAN1 (11760418_a_at) / RFU FAM167A (11723789_a_at) / Fold change /veh FAM167A (11723789_a_at) / RFU FAM26E (11764081_at) / Fold change /veh FAM26E (11764081_at) / RFU ISYNA1 (11749810_s_at) / Fold change /veh ISYNA1 (11749810_s_at) / RFU ACY1 (11761880_at) / Fold change /veh ACY1 (11761880_at) / RFU 11764098_at / Fold change /veh 11764098_at / RFU SAMD14 (11745864_x_at) / Fold change /veh SAMD14 (11745864_x_at) / RFU NPB (11741838_a_at) / Fold change /veh NPB (11741838_a_at) / RFU TMPRSS6 (11731388_a_at) / Fold change /veh TMPRSS6 (11731388_a_at) / RFU KRTAP10-2 (11738614_at) / Fold change /veh KRTAP10-2 (11738614_at) / RFU ARHGAP8 /// PRR5-ARHGAP8 (11727945_x_at) / Fold change /veh ARHGAP8 /// PRR5-ARHGAP8 (11727945_x_at) / RFU KRTAP5-7 /// NADSYN1 (11734609_at) / Fold change /veh KRTAP5-7 /// NADSYN1 (11734609_at) / RFU RASL12 (11751679_a_at) / Fold change /veh RASL12 (11751679_a_at) / RFU CDKN2B (11736163_a_at) / Fold change /veh CDKN2B (11736163_a_at) / RFU PRF1 (11729649_at) / Fold change /veh PRF1 (11729649_at) / RFU, ZNF638 /// ZNF638-IT1 / Fold change vs veh, ZNF638 /// ZNF638-IT1 / RFU, PANK3 / Fold change vs veh, PANK3 / RFU, SH3YL1 / Fold change vs veh, SH3YL1 / RFU, ZEB2 / Fold change vs veh, ZEB2 / RFU, NRIP1 / Fold change vs veh, NRIP1 / RFU, PTTG1IP / Fold change vs veh, PTTG1IP / RFU, CAPN2 / Fold change vs veh, CAPN2 / RFU, MED14 / Fold change vs veh, MED14 / RFU, SNORA58 / Fold change vs veh, SNORA58 / RFU, C1orf63 / Fold change vs veh, C1orf63 / RFU, LRRFIP1 / Fold change vs veh, LRRFIP1 / RFU, NDUFAF7 / Fold change vs veh, NDUFAF7 / RFU, SLC12A2 / Fold change vs veh, SLC12A2 / RFU, IBTK / Fold change vs veh, IBTK / RFU, ESF1 / Fold change vs veh, ESF1 / Fold change vs veh, TMEM50B / RFU, TAOK1 / Fold change vs veh, TAOK1 / RFU, ACBD3 / Fold change vs veh, ACBD3 / RFU, TMA16 / Fold change vs veh, TMA16 / RFU, RWDD3 / Fold change vs veh, RWDD3 / RFU, BCAT1 / Fold change vs veh, BCAT1 / RFU, EDEM3 / Fold change vs veh, EDEM3 / RFU, TMEM33 / Fold change vs veh, TMEM33 / RFU, WDR75 / Fold change vs veh, WDR75 / RFU, AHCTF1 / Fold change vs veh, AHCTF1 / RFU, TFRC / Fold change vs veh, TFRC / RFU, ZDHHC17 / Fold change vs veh, ZDHHC17 / RFU, NOM1 / Fold change vs veh, NOM1 / RFU, ARL8B / Fold change vs veh, ARL8B / RFU, ZBTB11 / Fold change vs veh, ZBTB11 / RFU, TAMM41 / Fold change vs veh, TAMM41 / RFU, KIAA1704 /// LOC100996395 / Fold change vs veh, KIAA1704 /// LOC100996395 / RFU, ING1 / Fold change vs veh, ING1 / RFU, TRMT61B / Fold change vs veh, TRMT61B / RFU, FUBP3 / Fold change vs veh, FUBP3 / RFU, TP53 / Fold change vs veh, TP53 / RFU, TNKS2 / Fold change vs veh, TNKS2 / RFU, ZFP14 / Fold change vs veh, ZFP14 / RFU, ACTR2 / Fold change vs veh, ACTR2 / RFU, PPP3R1 / Fold change vs veh, PPP3R1 / RFU, PIK3R1 / Fold change vs veh, PIK3R1 / RFU, HNRNPA1 / Fold change vs veh, HNRNPA1 / RFU, RNF170 / Fold change vs veh, RNF170 / RFU, ZNF28 / Fold change vs veh, ZNF28 / RFU, RNGTT / Fold change vs veh, RNGTT / RFU, OGT / Fold change vs veh, OGT / RFU, BRD1 / Fold change vs veh, BRD1 / RFU, MARS / Fold change vs veh, MARS / RFU, ZNF655 / Fold change vs veh, ZNF655 / RFU, FAHD1 / Fold change vs veh, FAHD1 / RFU, BDP1 / Fold change vs veh, BDP1 / RFU, LRRCC1 / Fold change vs veh, LRRCC1 / RFU, ARID1A / Fold change vs veh, ARID1A / RFU, ZNF146 / Fold change vs veh, ZNF146 / RFU, ZNF330 / Fold change vs veh, ZNF330 / RFU, GPN3 / Fold change vs veh, GPN3 / RFU, C9orf123 / Fold change vs veh, C9orf123 / RFU, N4BP2L2 / Fold change vs veh, N4BP2L2 / RFU, ARFIP1 / Fold change vs veh, ARFIP1 / RFU, FAM179B / Fold change vs veh, FAM179B / RFU, BCL10 / Fold change vs veh, BCL10 / RFU, UHRF1BP1L / Fold change vs veh, UHRF1BP1L / RFU, BET1 / Fold change vs veh, BET1 / RFU, CNOT2 / Fold change vs veh, CNOT2 / RFU, ZNF268 / Fold change vs veh, ZNF268 / Fold change vs veh, ZNF507 / RFU, DGCR2 / Fold change vs veh, DGCR2 / RFU, WDSUB1 / Fold change vs veh, WDSUB1 / Fold change vs veh, HSP90B1 /// MIR3652 / RFU, ADSS / Fold change vs veh, ADSS / RFU, GK / Fold change vs veh, GK / RFU, ZNF148 / Fold change vs veh, ZNF148 / RFU, TAF9 / Fold change vs veh, TAF9 / RFU, SLC1A5 / Fold change vs veh, SLC1A5 / RFU, SLMO2 / Fold change vs veh, SLMO2 / RFU, ABCC4 / Fold change vs veh, ABCC4 / RFU, LOC101060439 /// RAP1B / Fold change vs veh, LOC101060439 /// RAP1B / RFU, RFX7 / Fold change vs veh, RFX7 / RFU, GTPBP10 / Fold change vs veh, GTPBP10 / RFU, CNEP1R1 / Fold change vs veh, CNEP1R1 / RFU, BIVM-ERCC5 /// ERCC5 / Fold change vs veh, BIVM-ERCC5 /// ERCC5 / RFU, ILF3 / Fold change vs veh, ILF3 / RFU 11762660_at / Fold change /veh 11762660_at / RFU VCAN (11757783_s_at) / Fold change /veh VCAN (11757783_s_at) / RFU DDX43 (11728927_at) / Fold change /veh DDX43 (11728927_at) / RFU KRT8 (11758188_x_at) / Fold change /veh KRT8 (11758188_x_at) / RFU NKD1 (11759106_at) / Fold change /veh NKD1 (11759106_at) / RFU SRD5A1 (11742802_a_at) / Fold change /veh SRD5A1 (11742802_a_at) / RFU TPSAB1 /// TPSB2 (11721975_s_at) / Fold change /veh TPSAB1 /// TPSB2 (11721975_s_at) / RFU GSTM3 (11746129_a_at) / Fold change /veh GSTM3 (11746129_a_at) / RFU IL23R (11737362_x_at) / Fold change /veh IL23R (11737362_x_at) / RFU TMEM51 (11727254_a_at) / Fold change /veh TMEM51 (11727254_a_at) / RFU PIWIL2 (11732686_x_at) / Fold change /veh PIWIL2 (11732686_x_at) / RFU ORM1 (11744905_x_at) / Fold change /veh ORM1 (11744905_x_at) / RFU CCDC152 (11743942_at) / Fold change /veh CCDC152 (11743942_at) / RFU ECM1 (11717891_a_at) / Fold change /veh ECM1 (11717891_a_at) / RFU IL23R (11748794_a_at) / Fold change /veh IL23R (11748794_a_at) / RFU TNFAIP8L3 (11732012_x_at) / Fold change /veh TNFAIP8L3 (11732012_x_at) / RFU MBOAT4 (11741988_at) / Fold change /veh MBOAT4 (11741988_at) / RFU 11764193_at / Fold change /veh 11764193_at / RFU TMEM53 (11763286_at) / Fold change /veh TMEM53 (11763286_at) / RFU MAGEB2 (11727129_at) / Fold change /veh MAGEB2 (11727129_at) / RFU TMEM200A (11744735_a_at) / Fold change /veh TMEM200A (11744735_a_at) / RFU CCDC152 (11751479_a_at) / Fold change /veh CCDC152 (11751479_a_at) / RFU FAM211A (11726209_a_at) / Fold change /veh FAM211A (11726209_a_at) / RFU RGS16 (11746705_a_at) / Fold change /veh RGS16 (11746705_a_at) / RFU VCAN (11755009_s_at) / Fold change /veh VCAN (11755009_s_at) / RFU RHOB (11743442_s_at) / Fold change /veh RHOB (11743442_s_at) / RFU RGS16 (11720943_a_at) / Fold change /veh RGS16 (11720943_a_at) / RFU RGS16 (11720944_at) / Fold change /veh RGS16 (11720944_at) / RFU, VPS4B / Fold change vs veh, VPS4B / RFU, CREB1 / Fold change vs veh, CREB1 / RFU, DNAJC13 / Fold change vs veh, DNAJC13 / RFU, GNAQ / Fold change vs veh, GNAQ / RFU, CDK5R1 / Fold change vs veh, CDK5R1 / RFU, ZRANB3 / Fold change vs veh, ZRANB3 / RFU, CUL4A / Fold change vs veh, CUL4A / RFU, CCNY / Fold change vs veh, CCNY / RFU, UFL1 / Fold change vs veh, UFL1 / RFU, COG3 / Fold change vs veh, COG3 / RFU, DIAPH2 / Fold change vs veh, DIAPH2 / RFU, SKA2 / Fold change vs veh, SKA2 / RFU, AFF3 / Fold change vs veh, AFF3 / RFU, LMF1 / Fold change vs veh, LMF1 / RFU, IPO11 / Fold change vs veh, IPO11 / RFU, DFFB / Fold change vs veh, DFFB / RFU, FOXP1 / Fold change vs veh, FOXP1 / RFU, CARD8 / Fold change vs veh, CARD8 / RFU, STRN3 / Fold change vs veh, STRN3 / RFU, ADK / Fold change vs veh, ADK / RFU, RASSF2 / Fold change vs veh, RASSF2 / RFU, WIPF1 / Fold change vs veh, WIPF1 / RFU, LARP1B / Fold change vs veh, LARP1B / RFU, RASA1 / Fold change vs veh, RASA1 / RFU, RB1 / Fold change vs veh, RB1 / RFU, PPFIA1 / Fold change vs veh, PPFIA1 / RFU, MAT2A / Fold change vs veh, MAT2A / RFU, CCT5 / Fold change vs veh, CCT5 / RFU, WDR92 / Fold change vs veh, WDR92 / RFU, CUX1 / Fold change vs veh, CUX1 / RFU, TTC7A / Fold change vs veh, TTC7A / RFU, TMEM135 / Fold change vs veh, TMEM135 / RFU, DEPTOR / Fold change vs veh, DEPTOR / RFU, CPM / Fold change vs veh, CPM / RFU, DNAJB6 / Fold change vs veh, DNAJB6 / RFU, CACNA2D3 / Fold change vs veh, CACNA2D3 / RFU, DTX4 / Fold change vs veh, DTX4 / RFU, TFCP2 / Fold change vs veh, TFCP2 / RFU, GMCL1 /// GMCL1P1 / Fold change vs veh, GMCL1 /// GMCL1P1 / RFU, AEBP2 / Fold change vs veh, AEBP2 / RFU, SNHG1 /// SNORD22 /// SNORD25 /// SNORD26 /// SNORD27 /// SNORD28 /// SNORD29 /// SNORD31 / Fold change vs veh, SNHG1 /// SNORD22 /// SNORD25 /// SNORD26 /// SNORD27 /// SNORD28 /// SNORD29 /// SNORD31 / Fold change (Aza/veh), C12orf56 (ProbeSet 11735607_a_at) / Fold change (ACY-1035/veh), C12orf56 (ProbeSet 11735607_a_at) / Fold change (Aza/veh), FGFR1OP (ProbeSet 11751329_s_at) / Fold change (ACY-1035/veh), FGFR1OP (ProbeSet 11751329_s_at) / Fold change (Aza/veh), VPS36 (ProbeSet 11739960_a_at) / Fold change (ACY-1035/veh), VPS36 (ProbeSet 11739960_a_at) / RFU SYPL1 (11715823_x_at) / Fold change /veh SYPL1 (11715823_x_at) / RFU IGFBP7 (11715501_s_at) / Fold change /veh IGFBP7 (11715501_s_at) / RFU REEP3 (11722064_at) / Fold change /veh REEP3 (11722064_at) / RFU IGLL1 (11728026_x_at) / Fold change /veh IGLL1 (11728026_x_at): dose or concentration left out as unconfirmed
Details: ProbeSet 11747889_x_at; LIST B

Nc1ccc(-c2cccs2)cc1NC(=O)c1ccc2c(c1)cc(C1CC1)n2CCN1CCOCC1 [ACY-1035]
RFU, SH3YL1: 65.52 RFU
